# pKi: −log10 of the molar value.
# Experiments:
# Thymidylate synthase [1] = target: Thymidylate synthase (Mus musculus, UniProt P07607); experiment: Inhibitory effect on murine leukemia (L1210) thymidylate synthase
# Thymidylate synthase [2] = target: T1, Thymidylate synthase (Lactobacillus casei, UniProt P00469); experiment: Inhibitory effect on Lactobacillus casei thymidylate synthase; design: species or system Lacticaseibacillus casei
# T1 sequence (P00469 whole entry): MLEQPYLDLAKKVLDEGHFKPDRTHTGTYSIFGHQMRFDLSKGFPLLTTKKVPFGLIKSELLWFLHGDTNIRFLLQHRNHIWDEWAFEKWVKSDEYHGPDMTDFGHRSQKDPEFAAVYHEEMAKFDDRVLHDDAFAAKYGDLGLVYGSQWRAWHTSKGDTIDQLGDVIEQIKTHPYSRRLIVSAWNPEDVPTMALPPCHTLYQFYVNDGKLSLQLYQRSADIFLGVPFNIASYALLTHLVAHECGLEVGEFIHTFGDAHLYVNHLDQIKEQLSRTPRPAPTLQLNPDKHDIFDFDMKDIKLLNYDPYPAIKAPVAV
# Thymidylate synthase [3] = target: Thymidylate synthase (Homo sapiens, UniProt P04818); experiment: Inhibitory effect on human lymphoblast (Molt/4F) thymidylate synthase
# Chain of Thymidylate synthase (Homo sapiens, UniProt P04818) (P04818 whole entry): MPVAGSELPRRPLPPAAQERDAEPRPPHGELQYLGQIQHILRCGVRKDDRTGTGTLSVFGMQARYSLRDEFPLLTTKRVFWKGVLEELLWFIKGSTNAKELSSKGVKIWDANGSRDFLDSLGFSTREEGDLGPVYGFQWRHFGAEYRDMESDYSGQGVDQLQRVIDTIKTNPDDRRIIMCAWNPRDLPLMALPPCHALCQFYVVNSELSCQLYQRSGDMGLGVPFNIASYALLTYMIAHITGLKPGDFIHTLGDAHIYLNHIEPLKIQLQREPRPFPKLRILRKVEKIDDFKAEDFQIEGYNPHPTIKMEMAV
# Chain of Thymidylate synthase (Mus musculus, UniProt P07607) (P07607 whole entry): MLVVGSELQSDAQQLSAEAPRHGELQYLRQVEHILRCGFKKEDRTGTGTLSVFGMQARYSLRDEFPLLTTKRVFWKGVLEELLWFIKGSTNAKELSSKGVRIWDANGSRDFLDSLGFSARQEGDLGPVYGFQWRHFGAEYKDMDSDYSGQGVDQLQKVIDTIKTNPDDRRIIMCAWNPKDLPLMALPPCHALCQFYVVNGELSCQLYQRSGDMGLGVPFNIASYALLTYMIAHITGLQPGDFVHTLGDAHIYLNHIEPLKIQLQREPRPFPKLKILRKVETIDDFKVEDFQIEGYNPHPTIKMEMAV
Structure (SMILES),pKi (Thymidylate synthase [1]),pKi (Thymidylate synthase [2]),pKi (Thymidylate synthase [3])
Cc1ccc(-c2cn([C@H]3C[C@H](O)[C@@H](COP(=O)(O)O)O3)c(=O)[nH]c2=O)cc1,5.08,–,–
O=c1[nH]c(=O)n([C@H]2C[C@H](O)[C@@H](COP(=O)(O)O)O2)cc1-c1ccc(Br)cc1,4.53,5.74,–
N#Cc1ccc(-c2cn([C@H]3C[C@H](O)[C@@H](COP(=O)(O)O)O3)c(=O)[nH]c2=O)cc1,4.01,5.06,3.94
O=c1[nH]c(=O)n([C@H]2C[C@H](O)[C@@H](COP(=O)(O)O)O2)cc1-c1ccc(OCc2ccccc2)cc1,4.95,–,–
O=c1[nH]c(=O)n([C@H]2C[C@H](O)[C@@H](COP(=O)(O)O)O2)cc1-c1ccc([N+](=O)[O-])cc1,4.32,5.19,–
O=c1[nH]c(=O)n([C@H]2C[C@H](O)[C@@H](COP(=O)(O)O)O2)cc1-c1ccc(O)cc1,3.75,5.12,3.87
O=c1[nH]c(=O)n([C@H]2C[C@H](O)[C@@H](COP(=O)(O)O)O2)cc1-c1ccc(C(F)(F)F)cc1,4.03,5.31,–

# Further lines, results first:
pKi (Thymidylate synthase [1]),pKi (Thymidylate synthase [2]),pKi (Thymidylate synthase [3]),Structure (SMILES)
4.91,6.02,–,O=c1[nH]c(=O)n([C@H]2C[C@H](O)[C@@H](COP(=O)(O)O)O2)cc1-c1ccccc1
4.48,5.92,–,COc1ccc(-c2cn([C@H]3C[C@H](O)[C@@H](COP(=O)(O)O)O3)c(=O)[nH]c2=O)cc1
4.95,5.95,–,Nc1ccc(-c2cn([C@H]3C[C@H](O)[C@@H](COP(=O)(O)O)O3)c(=O)[nH]c2=O)cc1
3.95,5.25,3.92,NC(=O)c1ccc(-c2cn([C@H]3C[C@H](O)[C@@H](COP(=O)(O)O)O3)c(=O)[nH]c2=O)cc1
4.34,5.40,3.99,COC(=O)c1ccc(-c2cn([C@H]3C[C@H](O)[C@@H](COP(=O)(O)O)O3)c(=O)[nH]c2=O)cc1
4.32,5.85,–,CN(C)c1ccc(-c2cn([C@H]3C[C@H](O)[C@@H](COP(=O)(O)O)O3)c(=O)[nH]c2=O)cc1
